Measured values from patent US10577349B2 (Sanford Burnham Prebys Medical Discovery Institute, priority 2015, dated 2020).

How the values were obtained:
[1] = test system: A375; experiment: 48 h Cytotoxicity A375; assay type: cell-based; conditions: Homo sapiens, A-375
[2] = biological target: EmCV Cap-independent translation; experiment: In vitro translation assay, FF-EmCV-Ren construct, cap-independent (Ren luciferase); assay type: biochemical, rabbit reticulocyte lysates
Outline: (§1)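 Rabbit reticulocyte lysate with -Met/-Leu translation mixes pre-incubated with compound 1 h at room temperature, then 0.1 μg bicistronic RNA added and translated 2 h at 30° C. Dual-Glo read-out: FF signal reports cap-dependent, Ren signal IRES-driven translation. Counter assay adds compound after translation to flag luciferase interference.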

[3] = biological target: HCV cap-independent translation; experiment: In vitro translation assay, FF-HCV-Ren construct, cap-independent (Ren luciferase); assay type: biochemical, rabbit reticulocyte lysates
Outline: as §1

[4] = biological target: HCV cap-dependent translation; experiment: In vitro translation assay, FF-HCV-Ren construct, cap-dependent (FF luciferase); assay type: biochemical, rabbit reticulocyte lysates
Outline: as §1

[5] = biological target: EmCV Cap-dependent translation; experiment: In vitro translation assay, FF-EmCV-Ren construct, cap-dependent (FF luciferase); assay type: biochemical, rabbit reticulocyte lysates
Outline: as §1

| Structure (SMILES) | IC50 [1] | IC50 [2] | IC50 [3] | IC50 [4] | IC50 [5] |
| --- | --- | --- | --- | --- | --- |
| O=C(/C=C/c1nc2ccccc2n1Cc1ccccc1)c1c(-c2ccccc2)c2cc(Cl)ccc2n(Cc2ccccc2)c1=O [Compound 56, 1-benzyl-3-[3-(1-benzyl-1H-benzoimidazol-2-yl)-acryloyl]-6-chloro-4-phenyl-1H-quinolin-2-one] | 2 to 10 µM | > 20 µM | 2 to 10 µM | 10 to 20 µM | 2 to 10 µM |
| O=C(/C=C/c1ccsc1)c1c(-c2ccccc2)c2cc(Cl)ccc2[nH]c1=O [Compound 27, 6-Chloro-4-phenyl-3-(3-thiophen-3-yl-acryloyl)-1H-quinolin-2-one] | 2 to 10 µM | 2 to 10 µM | 2 to 10 µM | 2 to 10 µM | 2 to 10 µM |
| Cc1cncc(/C=C/C(=O)c2c(-c3ccccc3)c3cc(Cl)ccc3[nH]c2=O)c1 [Compound 74, 3-[(2E)-3-(5-methyl(3-pyridyl))prop-2-enoyl]-6-chloro-4-phenylhydroquinolin-2-one] | < 2 µM | 2 to 10 µM | 2 to 10 µM | 2 to 10 µM | 2 to 10 µM |
| O=C(/C=C/c1ccccn1)c1c(-c2cncc(Cl)c2)c2cc(Cl)ccc2[nH]c1=O [Compound 102, 3-((2E)-3-(2-pyridyl)prop-2-enoyl)-6-chloro-4-(5-chloro(3-pyridyl))hydroquinolin-2-one] | 2 to 10 µM | 10 to 20 µM | 10 to 20 µM | 10 to 20 µM | 10 to 20 µM |
| COc1ccnc(/C=C/C(=O)c2c(-c3ccccc3)c3cc(Cl)ccc3[nH]c2=O)c1 [Compound 75, 3-[(2E)-3-(4-methoxy(2-pyridyl))prop-2-enoyl]-6-chloro-4-phenylhydroquinolin-2-one] | < 2 µM | 2 to 10 µM | 2 to 10 µM | 2 to 10 µM | 2 to 10 µM |
| O=C(/C=C/c1cncc(F)c1)c1c(-c2ccc(Cl)cc2)c2cc(Cl)ccc2[nH]c1=O [Compound 81, 3-[(2E)-3-(5-fluoro(3-pyridyl))prop-2-enoyl]-6-chloro-4-(4-chlorophenyl)hydroquinolin-2-one] | 2 to 10 µM | 2 to 10 µM | 2 to 10 µM | 2 to 10 µM | 2 to 10 µM |
| COc1cncc(-c2c(C(=O)/C=C/c3cncc(F)c3)c(=O)[nH]c3ccc(Cl)cc23)c1 [Compound 97, 3-[(2E)-3-(5-fluoro(3-pyridyl))prop-2-enoyl]-6-chloro-4-(5-methoxy(3-pyridyl))hydroquinolin-2-one] | 2 to 10 µM | 2 to 10 µM | 2 to 10 µM | 10 to 20 µM | 2 to 10 µM |
| Cc1ccc(-c2c(C(=O)/C=C/c3cncc(F)c3)c(=O)[nH]c3ccc(Cl)cc23)cc1 [Compound 85, 3-[(2E)-3-(5-fluoro(3-pyridyl))prop-2-enoyl]-6-chloro-4-(4-methylphenyl)hydroquinolin-2-one] | < 2 µM | 2 to 10 µM | 2 to 10 µM | 2 to 10 µM | 2 to 10 µM |
| O=C(/C(Br)=C\c1cncc(F)c1)c1c(-c2ccccc2)c2cc(Cl)ccc2[nH]c1=O [Compound 111, 3-[(2E)-2-bromo-3-(5-fluoro(3-pyridyl))prop-2-enoyl]-6-chloro-4-phenylhydroquinolin-2-one] | 2 to 10 µM | 2 to 10 µM | 2 to 10 µM | 2 to 10 µM | 2 to 10 µM |
| O=C(/C=C/c1cc2ccccc2s1)c1c(-c2ccccc2)c2cc(Cl)ccc2[nH]c1=O [Compound 36, 3-(3-Benzo[b]thiophen-2-yl-acryloyl)-6-chloro-4-phenyl-1H-quinolin-2-one] | 2 to 10 µM | 10 to 20 µM | 2 to 10 µM | 2 to 10 µM | 2 to 10 µM |
| COc1ccc(Cn2c(/C=C/C(=O)c3c(-c4ccccc4)c4cc(Cl)ccc4[nH]c3=O)nc3cc(Cl)ccc32)cc1 [Compound 54, (E)-6-chloro-3-(3-(5-chloro-1-(4-methoxybenzyl)-1H-benzo[d]imidazol-2-yl)acryloyl)-4-phenylquinolin-2(1H)-one] | 2 to 10 µM | 2 to 10 µM | 2 to 10 µM | 2 to 10 µM | 2 to 10 µM |
| O=C(/C=C/c1ccccn1)c1c(-c2ccc(C(F)(F)F)cc2)c2cc(Cl)ccc2[nH]c1=O [Compound 84, 3-((2E)-3-(2-pyridyl)prop-2-enoyl)-6-chloro-4-[4-(trifluoromethyl)phenyl]hydroquinolin-2-one] | < 2 µM | 2 to 10 µM | 2 to 10 µM | 2 to 10 µM | 2 to 10 µM |
| COc1ccc(/C=C/C(=O)c2c(-c3ccccc3)c3cc(Cl)ccc3[nH]c2=O)c(F)c1 [Compound 43, 6-Chloro-3-[3-(2-fluoro-4-methoxy-phenyl)-acryloyl]-4-phenyl-1H-quinolin-2-one] | < 2 µM | > 20 µM | 2 to 10 µM | 2 to 10 µM | > 20 µM |
| O=C(/C=C/c1nc2ccccc2n1Cc1ccccc1)c1c(-c2ccccc2)c2cc(Cl)ccc2[nH]c1=O [Compound 55, 3-[3-(1-Benzyl-1H-benzoimidazol-2-yl)-acryloyl]-6-chloro-4-phenyl-1H-quinolin-2-one] | 2 to 10 µM | 2 to 10 µM | 2 to 10 µM | 2 to 10 µM | 2 to 10 µM |
